The values that follow come from patent publication US20250302798A1, “STING INHIBITORS AND USE THEREOF” (CARMEL HAIFA UNIVERSITY ECONOMIC CORPORATION LTD., priority 2022, published 2025).

SMILES strings stand for the structures. Entries after “also recorded” stand apart in the source; their conditions may differ.

The target in experiment [1] is T1, STING (Mus musculus, UniProt Q3TBT3).
T1 sequence (Q3TBT3 1-378): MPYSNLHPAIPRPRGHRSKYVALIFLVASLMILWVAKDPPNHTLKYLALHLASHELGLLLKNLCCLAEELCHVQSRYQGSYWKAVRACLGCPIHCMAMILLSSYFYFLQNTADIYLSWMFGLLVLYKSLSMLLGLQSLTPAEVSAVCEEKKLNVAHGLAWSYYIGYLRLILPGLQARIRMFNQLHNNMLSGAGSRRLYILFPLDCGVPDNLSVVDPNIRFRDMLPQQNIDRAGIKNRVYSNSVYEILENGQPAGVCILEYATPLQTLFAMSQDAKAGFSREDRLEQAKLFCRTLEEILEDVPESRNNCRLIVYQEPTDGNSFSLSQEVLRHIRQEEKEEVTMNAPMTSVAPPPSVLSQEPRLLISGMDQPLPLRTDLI
Nature of the experiment: Cytokine secretion (ELISA) from DMXAA-activated resolution phase macrophages (zymosan A peritonitis). Format: cell-based, mice. Details: Mice were injected with zymosan A (1 mg/mouse), and peritoneal cells thereof were recovered after 66 hrs; endogenous in cells; host or cells: F4/80+ peritoneal exudate macrophages from mice with zymosan A peritonitis. The conditions noted are these: for TNFα secretion / IL-10 secretion: individual compounds 50-5,000 nM + DMXAA 5-10 μM; for Mode of action in resolution phase macrophages: summary heading; for TNFα induced by DMXAA: at 5000 nM. On the procedure:
Mice were injected with zymosan A (1 mg/mouse), and peritoneal cells thereof were recovered after 66 hrs. Exudate macrophages were isolated and incubated (1×10^6 cells in 0.5 mL of culture media) overnight with a premade mixture of the individual compounds in clusters 1 and 9 (5,000 nM; 5A and 5C), or the individual compounds (500-5,000 nM), or vehicle and DMXAA (5-10 μM). Next, culture supernatants were collected and TNFα (5A-5B) or IL-10 (5C-5D) levels were determined by standard ELISA (Biolegend).
(§1) Splenocytes were isolated from the spleens of unchallenged C57BL/6 WT or STING-KO mice by meshing against a grid. Peritoneal macrophages were isolated from mice undergoing peritonitis for 66 hr by washing with 5 ml PBS. The cellular exudate was stained with phycoerythrin (PE)-conjugated anti-F4/80 antibodies (bioLegend, CA, USA) and macrophages were isolated using magnetic beads (STEMCELL Technologies Inc, Vancouver, Canada). Isolated splenocytes or macrophages (0.5-1×10^6 cells per well) were incubated with 50-5,000 nM of individual substances or pooled clusters thereof. Then, the cells were treated with vehicle or 5-10 μM DMXAA (Cayman Chemical, MI, USA) to activate STING. After 24 hr, culture supernatants were collected and evaluated for levels of: TNFα, IFN-β and/or IL-10 using, standard ELISA (BioLegend, CA, USA).
To use a more physiological setting, macrophages were isolated from zymosan A-induced peritonitis and treated with the compounds alone (5,000 nM) or compounds (50-5,000 nM) with DMXAA, or DMXAA alone.
A general note: An ELISA detects its analyte on a solid surface through an enzyme-linked reagent.

In experiment [2] the target is T1, STING. Nature of the experiment: Cytokine secretion (ELISA) from DMXAA-activated splenocytes. Set-up: Splenocytes were recovered from C57BL/6 WT female mice; endogenous in cells; host or cells: primary splenocytes of C57BL/6 mice. Format: cell-based, C57BL/6 mice. To be noted: for Mode of action on STING (overall): summary over various cell types, DMXAA stimulation; for STING inhibition (ranking): at 5,000 nM, resting splenocytes. The procedure: FIGS. 1A-1B include bar graphs showing that Cluster 1 and 9 inhibit tumor necrosis factor alpha (TNFα) while only cluster 1 promotes IL-10 secretion from resting splenocytes activated by the selective STING agonist DMXAA. Splenocytes were recovered from C57BL/6 WT or STING^−/− female mice and were incubated (1×10^6 cells in 0.5 mL of culture media) overnight with a premade mixture of the individual compounds in each cluster (5-500 nM) or vehicle, and DMXAA (10 μM). Next, culture supernatants were collected and TNFα(1A) or IL-10 (1B) levels were determined by standard enzyme-linked immunosorbent assay ELISA (Biolegend).
(§2) FIGS. 2A-2D include graphs showing that compounds 5.9 and 7.9 inhibit TNFα and IL-10 secretion from DMXAA-activated splenocytes. Splenocytes were recovered from C57BL/6 WT female mice and incubated (1×10^6 cells in 0.5 mL of culture media) overnight with the individual compounds from cluster 9 (50-5,000 nM) or vehicle and DMXAA (5-10 μM; 2A-2B) or at 5,000 nM without DMXAA (2C-2D). Next, culture supernatants were collected and TNFα (2A, and 2C) or IL-10 (2B, and 2D) levels were determined by standard ELISA. In 2A-2B, black horizontal line indicates secretion level from vehicle-treated cells.
FIGS. 3A-3H include graphs and an image showing that compounds 2.1, 4.1, and 6.1 inhibit TNFα but promote IL-10 and IFN-beta secretion from DMXAA-activated splenocytes. Splenocytes were recovered from C57BL/6 WT female mice and incubated (1×10^6 cells in 0.5 mL of culture media) overnight with the individual compounds from cluster 1 (50-5,000 nM) or vehicle and DMXAA (10 μM; 3A, 3C, and 3E) or at 5,000 nM without DMXAA (3B, 3D, and 3F). Next, culture supernatants were collected and TNFα (3A-3B), IL-10 (3C-3D), or IFN-beta (3E-3F) levels were determined by standard ELISA. In 3A, 3C, and 3E, black horizontal line indicates secretion level from vehicle-treated cells. (3G-3H) Biased STING agonists (BiSTs) enhance DMXAA-induced STING signaling. Splenocytes were treated with 25 μg/ml DMXAA and 50 nM of compound 2.1 for 1-4 hr (3G). Then, the cells were analyzed by immunoblotting for phosphorylated STING, TBK-1, IRF3, and NF-kB, or their unphosphorylated controls, or actin as a loading control. Densitometry analysis for phosphorylated STING (p-STING) and STING proteins (3H) is also shown. Results are representative (3G) or mean±SEM (3H) from 3 repeats. One-way ANOVA, and Tukey HSD test *P<0.05.
as §1
To test which cluster(s) included compounds that modulate STING-mediated cytokine production, wild-type (WT) or STING knockout (−/−) splenocytes were incubated with the selective murine STING agonist DMXAA alone or with 5-500 nM of the pooled individual compounds in each cluster as indicated.
Next, the individual compounds in clusters 1 and 9 were tested at 50-5,000 nM. The first experiment was performed in resting splenocytes as detailed above.

Experiment [3] has as its target T1, STING. Nature of the experiment: Cytokine secretion (ELISA) from splenocytes without DMXAA. Format: cell-based, C57BL/6 mice. Set-up: Splenocytes were recovered from C57BL/6 WT female mice; endogenous in cells; host or cells: primary splenocytes of C57BL/6 mice. To be noted: 5,000 nM. On the procedure:
as §2
FIGS. 3A-3H include graphs and an image showing that compounds 2.1, 4.1, and 6.1 inhibit TNFα but promote IL-10 and IFN-beta secretion from DMXAA-activated splenocytes. […] Next, culture supernatants were collected and TNFα (3A-3B), IL-10 (3C-3D), or IFN-beta (3E-3F) levels were determined by standard ELISA. […] Then, the cells were analyzed by immunoblotting for phosphorylated STING, TBK-1, IRF3, and NF-kB, or their unphosphorylated controls, or actin as a loading control. […]
Splenocytes were isolated from the spleens of unchallenged C57BL/6 WT or STING-KO mice by meshing against a grid. […] After 24 hr, culture supernatants were collected and evaluated for levels of: TNFα, IFN-β and/or IL-10 using, standard ELISA (BioLegend, CA, USA). […]

The subject of experiment [4] is LPS-activated splenocytes. Description: Cytokine secretion (ELISA) from LPS-activated splenocytes. To be noted: for IFN-beta secretion / IL-10 secretion / TNFα secretion / LPS-induced cytokine secretion: 5,000 nM + LPS 1 μg/ml; for IFN-beta secretion / IL-10 secretion / TNFα secretion: overnight. The experiment is classed as cell-based, C57BL/6 mice. The procedure: FIGS. 4A-4C include vertical bar graphs showing that compounds 5.9 and 7.9 inhibit TNFα but promote IL-10 and IFN-beta secretion from lipopolysaccharides (LPS)-activated splenocytes. Splenocytes were recovered from C57BL/6 WT female mice and incubated (1×10^6 cells in 0.5 mL of culture media) overnight with the individual compounds from cluster 9 (5,000 nM) or vehicle and LPS (1 μg/ml). Next, culture supernatants were collected and TNFα (4A), IL-10 (4B), or IFN-beta (4C) levels were determined by standard ELISA.
STING was previously shown to be essential for LPS-induced IRF3 activation and IFN-β production. Therefore, further examination of whether the putative STING antagonists affect LPS-induced cytokine production was carried out.

Where [5] appears, read: individual compounds 50-5,000 nM + DMXAA 5-10 μM, overnight.

For `COCC(=O)N(C)C(Cc1ccc(F)cc1)C1CCN(C(=O)c2ccc(-c3ccccc3)cc2)CC1` (stereo not shown) [Compound 3.1, N-[1-[1-(4-biphenylylcarbonyl)-4-piperidinyl]-2-(4-fluorophenyl)ethyl]-2-methoxy-N-methylacetamide], on STING [1], the TNFα secretion entry was “enhanced TNFα only”.

Turning to `c1ccc(-n2cccc2CN(Cc2cccnc2)Cc2ccc3c(c2)OCO3)nc1` [Compound 4.1, (1,3-benzodioxol-5-ylmethyl)(pyridin-3-ylmethyl)[(1-pyridin-2-yl-1H-pyrrol-2-yl)methyl]amine], the figures for the “IL-10 induced by DMXAA” value on STING [1] (at 500 nM) and on STING [1] (at 5,000 nM) were “enhanced” and “not”, respectively. Further, the IL-10 secretion entry on STING [1] is “selective inducer”; at STING [2] (setting [5]), “induced IL-10 at all concentrations; also recorded: promote”; on STING [2] (individual compounds at 5,000 nM + DMXAA), “induces”; on STING [3] (without DMXAA) it was “only compound that induced IL-10; also recorded: induces”. Further, the “Mode of action in resolution phase macrophages” value at STING [1] is given as “Biased Antagonist for TNFα”. Besides, at STING [2] (individual compounds 50-5,000 nM + DMXAA 10 μM, overnight), the IFN-beta secretion result was “promote”. Besides, the TNFα secretion result at STING [2] (setting [5]) was “inhibit”. In addition, the “Mode of action on STING (overall)” value on STING [2] was “biased agonists; also recorded: most efficient biased agonist”.

On to `COc1ccccc1CCN1CCCC(CN(C)C(=O)Cc2cn(C)c3ccccc23)C1` (stereo not shown) [Compound 4.9], for which, at STING [2], the “STING inhibition (ranking)” value is listed as “Best STING Inhibitors”. Also, the TNFα secretion result on STING [2] (setting [5]) is “doing so at lower concentrations”.

`Cc1ccc2c(-c3cc4c(n(CC5CC5)c3=O)CCN(C(=O)C3=NN(C)C(=O)CC3)C4)cccc2n1` [Compound 5.9, 1-(cyclopropylmethyl)-6-[(1-methyl-6-oxo-1,4,5,6-tetrahydro-3-pyridazinyl)carbonyl]-3-(2-methyl-5-quinolinyl)-5,6,7,8-tetrahydro-1,6-naphthyridin-2(1H)-one]: at STING [1] (at 5,000 nM), the “IL-10 induced by DMXAA” value is “enhanced”. Further, the “TNFα induced by DMXAA” value at STING [1] was “enhanced”. Also, in experiment [4], the IFN-beta secretion result is listed as “enhances; also recorded: significant upregulation; also recorded: promote”; the IL-10 secretion entry is on record as “enhances; also recorded: significant upregulation; also recorded: promote”; the TNFα secretion entry is “not and reducing and inhibiting and inhibit”. In addition, the “Mode of action in LPS-stimulated splenocytes” value in experiment [4] (summary statement) is recorded as “biased agonist”. Further, at STING [2], the “STING inhibition (ranking)” value was “Best STING Inhibitors” and the “Mode of action on STING (overall)” value is recorded as “very efficient STING inhibitors”. Further, on STING [2] (setting [5]), the IL-10 secretion result is “inhibit” and the TNFα secretion entry is listed as “doing so at lower concentrations; also recorded: best inhibitor; also recorded: inhibit”. Besides, the TNFα secretion result at STING [3] (absence of DMXAA stimulation) is on record as “inhibited”.

Regarding `Cc1ccc(C(=O)Nc2cnn(-c3ccc(C(=O)N4CCC(c5ccc(F)cc5)C4)cc3)c2)c(C)c1` (stereo not shown) [Compound 6.1, N-[1-(4-{[3-(4-fluorophenyl)-1-pyrrolidinyl]carbonyl}phenyl)-1H-pyrazol-4-yl]-2,4-dimethylbenzamide], the “IL-10 induced by DMXAA” value at STING [1] (at 5,000 nM) is “enhanced”. Also, on STING [1], the “TNFα induced by DMXAA” value was “enhanced”. On STING [2], the “STING inhibition (ranking)” value is “Best STING Inhibitors” and the “Mode of action on STING (overall)” value was “biased agonists”. Further, the TNFα secretion result at STING [2] (setting [5]) is listed as “doing so at lower concentrations; also recorded: inhibit”.

Regarding `CCOC(=O)N1CCC(NCc2cc3ccc(Cl)cc3n(CCOc3ccccc3)c2=O)CC1` [Compound 6.9, ethyl 4-({[7-chloro-2-oxo-1-(2-phenoxyethyl)-1,2-dihydro-3-quinolinyl]methyl}amino)-1-piperidinecarboxylate], the LPS-induced cytokine secretion result in experiment [4] was “much milder effects”.

With `O=C(CCc1c[nH]c2ccccc12)N1CCOc2ccc(CN3CCN(c4ccccn4)CC3)cc2C1` [Compound 7.9, 4-[3-(1H-indol-3-yl)propanoyl]-7-{[4-(2-pyridinyl)-1-piperazinyl]methyl}-2,3,4,5-tetrahydro-1,4-benzoxazepine], on STING [1], the IL-10 secretion entry was “best inhibitor; also recorded: inhibits”, the TNFα secretion entry is listed as “best inhibitor; also recorded: inhibits” and the “Mode of action in resolution phase macrophages” value is “Very Efficient STING Inhibitor”. For the same compound, in experiment [4], the LPS-induced cytokine secretion entry is on record as “much milder effects”, the IFN-beta secretion result is recorded as “promote”, the IL-10 secretion result is “promote” and the TNFα secretion result was “inhibit”. Also, on STING [2] (setting [5]), the IL-10 secretion entry is given as “inhibit” and the TNFα secretion entry was “inhibit”. Further, the “Mode of action on STING (overall)” value on STING [2] is “very efficient STING inhibitors”.
